Laboratory results taken from patent US20120165331A1, “Di/tri-aza-spiro-C9-C11alkanes” (priority 2010, published 2012).

Key:
human orexin 2 receptor [1] = molecular target: T1, human orexin 2 receptor (Homo sapiens, UniProt O43614); test: Calcium accumulation in cells (FLIPR), antagonism of orexin A, human orexin 2 receptor; format: cell-based; conditions: calcium accumulation, antagonism of orexin A, Cheng-Prusoff corrected; read-out: FLIPR hOx2R Ki
T1 construct: expressed in transfected cells
T1 sequence (O43614 1-444): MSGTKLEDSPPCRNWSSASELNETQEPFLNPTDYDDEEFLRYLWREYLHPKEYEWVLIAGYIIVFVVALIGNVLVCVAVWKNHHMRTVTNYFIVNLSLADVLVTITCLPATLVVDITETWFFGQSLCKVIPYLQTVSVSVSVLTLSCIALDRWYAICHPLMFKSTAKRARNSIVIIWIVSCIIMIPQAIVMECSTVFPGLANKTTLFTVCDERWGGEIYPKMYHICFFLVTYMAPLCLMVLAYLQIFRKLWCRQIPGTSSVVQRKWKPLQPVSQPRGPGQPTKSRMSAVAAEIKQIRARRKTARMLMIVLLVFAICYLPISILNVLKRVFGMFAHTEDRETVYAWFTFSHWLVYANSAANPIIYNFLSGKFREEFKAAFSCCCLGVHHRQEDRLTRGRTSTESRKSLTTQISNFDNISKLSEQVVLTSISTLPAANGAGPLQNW

human orexin 2 receptor [2] = molecular target: T1, human orexin 2 receptor; test: Radioligand binding assay ([3H]-SB649868 competition), human orexin 2 receptor; conditions: radioligand [3H]-SB649868; read-out: Binding hOx2R Kd
Description: (§1) Radioligand Binding Assay
(§2) For crude cell membrane preparations, cells (CHO, Chinese hamster ovary or HEK, human embryonic kidney) expressing human orexin 1 or human orexin 2 receptors, were washed with HEPES (10 mM, pH 7.5), scraped off the culture plates with the same buffer, and centrifuged at 4° C. for 5 min at 2500×g. The cell pellet was either stored at −80° C. or used directly. Before the experiments, cell membranes were re-suspended in binding assay buffer (10 mM HEPES, 0.5% (w/v) bovine serum albumin, pH 7.5) by homogenisation with a Polytron homogeniser at 50 Hz for 20 s. Cell membranes were also used as made available by commercial providers.
(§3) Bound radioactivity was measured, and data were analysed with the program XLFIT or Graphpad Prism. Protein concentration was determined according to the Bradford/BioRad Protein Assay Kit.
(§4) In competition experiments, cell homogenates (150 μl) were incubated in assay buffer (10 mM HEPES, pH 7.5, 0.5% (w/v) bovine serum albumin, 5 mM MgCl2, 1 mMCaCl2, and tween 0.05%) for 1 h at room temperature with about 1 nM of the radioligand [^3H]-SB649868, 66 Ci/mmole, 50 μl), and with various concentrations of compounds of the invention (50 μl) in triplicates; non-specific binding was determined in the presence of almorexant (10 μM). Reactions were terminated by vacuum filtration, 3 washes of ice cold wash buffer (Tris-HCl pH 7.4/10 mM, with NaCl 154 mM). Competition data is expressed in Table 1 as Kd [μM].

human orexin 1 receptor [3] = molecular target: T2, human orexin 1 receptor (Homo sapiens, UniProt O43613); test: Radioligand binding assay ([3H]-SB649868 competition), human orexin 1 receptor; conditions: radioligand [3H]-SB649868; read-out: Binding hOx1R Kd
T2 construct: expressed in transfected cells
T2 sequence (O43613 1-425): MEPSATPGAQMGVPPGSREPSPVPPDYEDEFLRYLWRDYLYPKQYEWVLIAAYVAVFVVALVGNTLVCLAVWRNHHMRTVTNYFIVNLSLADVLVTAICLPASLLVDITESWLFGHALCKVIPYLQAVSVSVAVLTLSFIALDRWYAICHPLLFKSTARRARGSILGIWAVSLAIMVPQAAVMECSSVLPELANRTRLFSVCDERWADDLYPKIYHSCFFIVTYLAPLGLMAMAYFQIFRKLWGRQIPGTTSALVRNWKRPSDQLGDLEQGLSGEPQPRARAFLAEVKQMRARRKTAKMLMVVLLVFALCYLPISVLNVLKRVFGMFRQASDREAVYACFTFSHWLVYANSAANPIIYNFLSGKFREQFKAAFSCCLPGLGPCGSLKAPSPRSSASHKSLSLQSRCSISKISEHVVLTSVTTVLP
Description: as §1, §2, §3, §4

human orexin 1 receptor [4] = molecular target: T2, human orexin 1 receptor; test: Calcium accumulation in cells (FLIPR), antagonism of orexin A, human orexin 1 receptor; format: cell-based; conditions: for Ki: calcium accumulation, antagonism of orexin A, Cheng-Prusoff corrected, read-out: FLIPR hOx1R Ki

SMILES	Ki (human orexin 2 receptor [1]) [nM]	Kd (human orexin 2 receptor [2]) [nM]	Kd (human orexin 1 receptor [3]) [nM]	Ki (human orexin 1 receptor [4]) [nM]	inhibition at 10 µM (human orexin 1 receptor [4]; measured at a concentration of 10 μM of compound, read-out: FLIPR hOx1R % inhibition) [%]
COc1cccc(-c2cn(C)nc2CN2CCNC3(CCN(c4nc(C)cc(C)n4)CC3)C2=O)c1 [Example 1.33, 9-(4,6-Dimethyl-pyrimidin-2-yl)-4-((4-(3-methoxyphenyl)-1-methyl-1H-pyrazol-3-yl)methyl)-1,4,9-triazaspiro[5.5] undecan-5-one]	6	42	1620	1530	–
CCc1cc(C)nc(N2CCC3(CC2)OCCN(Cc2c[nH]c4ccccc24)C3=O)n1 [Example 2.23, 4-((1H-indol-3-yl)methyl)-9-(4-ethyl-6-methylpyrimidin-2-yl)-1-oxa-4,9-diazaspiro[5.5]undecan-5-one]	37	68	1570	582	–
Cc1ccnc(N2CCC3(CCCN(Cc4c[nH]c5ccccc45)C3=O)C2)n1 (stereo not shown) [Example 7.11, 7-((1H-indol-3-yl)methyl)-2-(4-methylpyrimidin-2-yl)-2,7-diazaspiro[4.5]decan-6-one]	38	73	89	304	–
Cc1ccc(C)c(CN2C(=O)CCC23CCN(c2cnc4ccccc4n2)CC3)c1 [Example 8.5, 1-(2,5-Dimethylbenzyl)-8-(quinoxalin-2-yl)-1,8-diazaspiro[4.5]decan-2-one]	7.6	77	81	100	–
Cc1cc(C)nc(N2CCC3(CC2)NCCN(Cc2nn(C)cc2-c2cccc(OCCOC(C)C)c2)C3=O)n1 [Example 1.72, 9-(4,6-dimethyl-pyrimidin-2-yl)-4-((4-(3-(2-iso-propoxyethoxy)phenyl)-1-methyl-1H-pyrazol-3-yl)methyl)-1,4,9-triazaspiro[5.5] undecan-5-one]	49	203	846	1590	–
COc1ccc2[nH]nc(CN3CCNC4(CCN(c5nc(C)cc(C)n5)CC4)C3=O)c2c1 [Example 1.56, 9-(4,6-Dimethyl-pyrimidin-2-yl)-4-((5-methoxy-1H-indazol-3-yl)methyl)-1,4,9-triazaspiro[5.5] undecan-5-one]	2.7	11	492	594	–
Cc1cc(C)nc(N2CCC3(CC2)NCCN(Cc2nn(C)cc2-c2cccc(C(F)(F)F)c2)C3=O)n1 [Example 1.41, 9-(4,6-Dimethyl-pyrimidin-2-yl)-4-((1-methyl-4-(3-(trifluoromethyl)phenyl)-1H-pyrazol-3-yl)methyl)-1,4,9-triazaspiro[5.5] undecan-5-one]	16	182	3170	1580	–
Cc1cc(C)nc(N2CCC3(CC2)NCCN(Cc2nn(C)cc2-c2cccc(OC(C)C)c2)C3=O)n1 [Example 1.47, 9-(4,6-Dimethyl-pyrimidin-2-yl)-4-((4-(3-iso-propoxyphenyl)-1-methyl-1H-pyrazol-3-yl)methyl)-1,4,9-triazaspiro[5.5] undecan-5-one]	1	7	187	135	–
CCC(=O)c1cccc(-c2cn(C)nc2CN2CCNC3(CCN(c4nc(C)cc(C)n4)CC3)C2=O)c1 [Example 1.70, 9-(4,6-dimethyl-pyrimidin-2-yl)-4-((1-methyl-4-(3-propionylphenyl)-1H-pyrazol-3-yl)methyl)-1,4,9-triazaspiro[5.5] undecan-5-one]	2	21	465	856	–
Cc1cc(C)nc(N2CCC3(CC2)OCCN(Cc2ccccc2-c2nc(C)no2)C3=O)n1 [Example 2.10, 9-(4,6-Dimethylpyrimidin-2-yl)-4-(2-(3-methyl-1,2,4-oxadiazol-5-yl)benzyl)-1-oxa-4,9-diazaspiro[5.5]undecan-5-one]	72	144	4610	–	35
Cc1ccc(C)c(CN2C(=O)CCC23CCN(c2nc(C)cc(C)n2)CC3)c1 [Example 8.6, 1-(2,5-Dimethylbenzyl)-8-(4,6-dimethylpyrimidin-2-yl)-1,8-diazaspiro[4.5]decan-2-one]	10	153	4920	2780	–
COc1cccc(-c2oc(C)nc2CN2CCNC3(CCN(c4nc(C)cc(OC)n4)CC3)C2=O)c1 [Example 1.18, 9-(4-Methoxy-6-methylpyrimidin-2-yl)-4-((5-(3-methoxyphenyl)-2-methyloxazol-4-yl)methyl)-1,4,9-triazaspiro[5.5] undecan-5-one]	3	23	219	119	–
Cc1cc(C)nc(N2CCC3(CC2)NCCN(Cc2nn(C)cc2-c2cccc(OC(F)(F)F)c2)C3=O)n1 [Example 1.46, 9-(4,6-Dimethyl-pyrimidin-2-yl)-4-((1-methyl-4-(3-(trifluoro-methoxy)phenyl)-1H-pyrazol-3-yl)methyl)-1,4,9-triazaspiro[5.5] undecan-5-one]	5	91	3880	2040	–
COc1ccc2[nH]cc(CN3CCNC4(CCN(c5nc(C)cc(C)n5)CC4)C3=O)c2c1 [Example 1.34, 9-(4,6-Dimethyl-pyrimidin-2-yl)-4-((5-methoxy-1H-indol-3-yl)methyl)-1,4,9-triazaspiro[5.5] undecan-5-one]	1	4	234	494	–
COc1cc(C)nc(N2CCC3(CC2)NCCN(Cc2c[nH]c4ccccc24)C3=O)n1 [Example 1.8, 4-((1H-Indol-3-yl)methyl)-9-(4-methoxy-6-methylpyrimidin-2-yl)-1,4,9-triazaspiro[5.5] undecan-5-one]	8	19	679	906	–
COc1cc(-c2nn(C)nc2CN2CCNC3(CCN(c4nc(C)cc(C)n4)CC3)C2=O)ccn1 [Example 1.74, 9-(4,6-dimethyl-pyrimidin-2-yl)-4-((5-(2-methoxy-pyridin-4-yl)-2-methyl-2H-1,2,3-triazol-4-yl)methyl)-1,4,9-triazaspiro[5.5] undecan-5-one]	48	127	2500	4270	–
O=C1CCC2(CCN(c3cnc4ccccc4n3)CC2)N1Cc1cccc2[nH]ccc12 [Example 8.1]	2.1	32	148	78	–
COc1ccc2[nH]cc(CN3CCOC4(CCN(c5nc(C)cc(C)n5)CC4)C3=O)c2c1 [Example 2.7, 9-(4,6-Dimethylpyrimidin-2-yl)-4-((5-methoxy-1H-indol-3-yl)methyl)-1-oxa-4,9-diazaspiro[5.5]undecan-5-one]	1	6	213	258	–
COc1cccc(-c2sc(C)nc2CN2CCNC3(CCN(c4nc(C)cc(OC)n4)CC3)C2=O)c1 [Example 1.26, 9-(4-Methoxy-6-methylpyrimidin-2-yl)-4-((5-(3-methoxyphenyl)-2-methylthiazol-4-yl)methyl)-1,4,9-triazaspiro[5.5] undecan-5-one]	8	49	352	391	–
